Assay results reported in BindingDB's records for doi:10.1021/acs.jmedchem.0c00774 (Istituto Italiano Di Tecnologia, 2020).

Molecular target: Prostaglandin G/H synthase 1 (Homo sapiens, UniProt P23219)
Test: Inhibition of human COX1

Prostaglandin G/H synthase 1, sequence (P23219 whole entry): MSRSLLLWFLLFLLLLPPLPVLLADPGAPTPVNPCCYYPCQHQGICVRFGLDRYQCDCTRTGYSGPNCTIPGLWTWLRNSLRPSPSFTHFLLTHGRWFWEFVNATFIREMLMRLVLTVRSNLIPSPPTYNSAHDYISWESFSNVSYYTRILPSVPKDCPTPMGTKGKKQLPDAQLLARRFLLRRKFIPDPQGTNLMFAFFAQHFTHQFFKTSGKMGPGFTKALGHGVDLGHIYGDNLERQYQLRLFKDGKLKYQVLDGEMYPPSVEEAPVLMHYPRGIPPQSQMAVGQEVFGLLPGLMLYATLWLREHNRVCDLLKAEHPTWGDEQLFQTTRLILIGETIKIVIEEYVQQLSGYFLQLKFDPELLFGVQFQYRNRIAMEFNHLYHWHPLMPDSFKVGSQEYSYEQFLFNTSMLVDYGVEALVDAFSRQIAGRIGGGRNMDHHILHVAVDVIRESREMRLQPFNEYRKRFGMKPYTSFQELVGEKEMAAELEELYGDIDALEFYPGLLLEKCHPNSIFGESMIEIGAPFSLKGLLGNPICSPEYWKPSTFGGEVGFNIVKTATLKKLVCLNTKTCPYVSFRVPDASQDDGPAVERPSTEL

Compound `CN(C)c1ccc(Nc2nc(-c3ccncc3)nc3c2CC(N)CC3)cc1` (stereo unspecified) has an IC50 of 4 µM.
